Measured values as given in patent US12435044B2, “Pyridazinone herbicides and pyridazinone intermediates used to prepare a herbicide” (FMC Corporation, priority 2018, dated 2025).

What was measured:
Assay type in all cases: in vivo
[1] = test system: foxtail, giant (Setaria faberii); test: Test C pre-/postemergence greenhouse test; conditions: scale 0 to 100
Procedure, shortened: (§1)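 Seeds sown in silt loam soil and sprayed preemergence with test chemicals in a non-phytotoxic solvent mixture containing surfactant. Postemergence plants, 2 to 18 cm (1- to 4-leaf stage), grown in peat/vermiculite planting medium and treated with the same formulation. Visual injury rated 0–100 versus untreated controls after 13 to 21 d in the greenhouse.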

[2] = test system: lambsquarters (Chenopodium album); test: Test C pre-/postemergence greenhouse test; conditions: scale 0 to 100
Procedure, shortened: as §1

[3] = test system: oat, wild (Avena fatua); test: Test C pre-/postemergence greenhouse test; conditions: scale 0 to 100
Procedure, shortened: as §1

[4] = test system: surinam grass (Brachiaria decumbens); test: Test C pre-/postemergence greenhouse test; conditions: scale 0 to 100
Procedure, shortened: as §1

[5] = test system: barley, winter (Hordeum vulgare); test: Test D pre-/postemergence controlled growth environment test
Excerpt: (§2) Seeds of plant species selected from blackgrass (Alopecurus myosuroides), galium (catchweed bedstraw, Galium aparine), kochia (Kochia scoparia), oilseed rape (Brassica napus), barley, spring (Hordeum vulgare), wheat, spring (Triticum aestivum), oat, wild (Avena fatua), barley, winter (Hordeum vulgare) and wheat, winter (Triticum aestivum) were planted into a silt loam soil and treated preemergence with test chemicals formulated in a non-phytotoxic solvent mixture which included a surfactant.
(§3) At the same time, plants selected from these crop and weed species and also bluegrass (annual bluegrass, Poa annua), canarygrass (littleseed canarygrass, Phalaris minor), chickweed (common chickweed, Stellaria media), bromegrass, downy (downy bromegrass, Bromus tectorum), field poppy (Papaver rhoeas), field violet (Viola arvensis), foxtail, green (Setaria viridis), deadnettle (henbit deadnettle, Lamium amplexicaule), ryegrass, Italian (Lolium multiflorum), lambsquarters (Chenopodium album), pigweed (Amaranthus retroflexus), chamomile (scentless chamomile, Matricaria inodora), Russian thistle (Salsola kali), speedwell (bird's-eye speedwell, Veronica persica), buckwheat, wild (Polygonum convolvulus), mustard, wild (Sinapis arvensis), radish, wild (Raphanus raphanistrum), windgrass (Apera spica-venti), geranium, cutleaf (Geranium dissectum) and Canada thistle (Cirsium arvense) were planted in pots containing Redi-Earth® planting medium (Scotts Company, 14111 Scottslawn Road, Marysville, Ohio 43041) comprising spaghnum peat moss, vermiculite, wetting agent and starter nutrients and treated with postemergence applications of the test chemicals formulated in the same manner. Plants ranged in height from 2 to 18 cm (1- to 4-leaf stage). Treated plants and controls were maintained in a controlled growth environment for 14 to 21 d after which time all species were compared to controls and visually evaluated. Plant response ratings, summarized in Table D, are based on a scale of 0 to 100 where 0 is no effect and 100 is complete control. A dash (-) response means no test result.

[6] = test system: blackgrass (Alopecurus myosuroides); test: as above
Excerpt: as §2, §3

[7] = test system: galium (catchweed bedstraw, Galium aparine); test: as above
Excerpt: as §2, §3

[8] = test system: kochia (Kochia scoparia); test: as above
Excerpt: as §2, §3

[9] = test system: oat, wild (Avena fatua); test: as above
Excerpt: as §2, §3

[10] = test system: wheat, winter (Triticum aestivum); test: as above
Excerpt: as §2, §3

In the case of `Cc1cc(Cl)c2ccccc2c1-c1c(O)c(Cl)nn(C)c1=O` [Cpd. No. 65], the “Plant response rating, Foxtail, Giant” value ([1]; Postemergence, 16 g ai/ha) is reported as 95, the “Plant response rating, Foxtail, Giant” value ([1]; Postemergence, 31 g ai/ha) is reported as 95 and the “Plant response rating, Foxtail, Giant” value ([1]; Postemergence, 62 g ai/ha) is reported as 98. The “Plant response rating, Foxtail, Giant” value ([1]; Postemergence, 125 g ai/ha) was 98, the “Plant response rating, Foxtail, Giant” value ([1]; Preemergence, 31 g ai/ha) was 75 and the “Plant response rating, Foxtail, Giant” value ([1]; Preemergence, 61 g ai/ha) was 35. The “Plant response rating, Foxtail, Giant” value ([1]; Preemergence, 62 g ai/ha) was 95, the “Plant response rating, Foxtail, Giant” value ([1]; Preemergence, 125 g ai/ha) was 100 and the “Plant response rating, Lambsquarters” value ([2]; Postemergence, 16 g ai/ha) was 90. For the same compound, the “Plant response rating, Lambsquarters” value ([2]; Postemergence, 31 g ai/ha) was 98, the “Plant response rating, Lambsquarters” value ([2]; Postemergence, 62 g ai/ha) was 100 and the “Plant response rating, Lambsquarters” value ([2]; Postemergence, 125 g ai/ha) was 100. The “Plant response rating, Lambsquarters” value ([2]; Preemergence, 31 g ai/ha) was 80, the “Plant response rating, Lambsquarters” value ([2]; Preemergence, 61 g ai/ha) was 20 and the “Plant response rating, Lambsquarters” value ([2]; Preemergence, 62 g ai/ha) was 90. For the same compound, the “Plant response rating, Lambsquarters” value ([2]; Preemergence, 125 g ai/ha) was 100, the “Plant response rating, Oat, Wild” value ([3]; Postemergence, 16 g ai/ha) was 98 and the “Plant response rating, Oat, Wild” value ([3]; Postemergence, 31 g ai/ha) was 100. The “Plant response rating, Oat, Wild” value ([3]; Postemergence, 62 g ai/ha) was 100, the “Plant response rating, Oat, Wild” value ([3]; Postemergence, 125 g ai/ha) was 100 and the “Plant response rating, Oat, Wild” value ([3]; Preemergence, 31 g ai/ha) was 35. For the same compound, the “Plant response rating, Oat, Wild” value ([3]; Preemergence, 61 g ai/ha) was 30, the “Plant response rating, Oat, Wild” value ([3]; Preemergence, 62 g ai/ha) was 40 and the “Plant response rating, Oat, Wild” value ([3]; Preemergence, 125 g ai/ha) was 60. The “Plant response rating, Surinam Grass” value ([4]; Postemergence, 16 g ai/ha) was 90, the “Plant response rating, Surinam Grass” value ([4]; Postemergence, 31 g ai/ha) was 90 and the “Plant response rating, Surinam Grass” value ([4]; Postemergence, 62 g ai/ha) was 95. For the same compound, the “Plant response rating, Surinam Grass” value ([4]; Postemergence, 125 g ai/ha) was 95, the “Plant response rating, Surinam Grass” value ([4]; Preemergence, 31 g ai/ha) was 55 and the “Plant response rating, Surinam Grass” value ([4]; Preemergence, 61 g ai/ha) was 15. For the same compound, the “Plant response rating, Surinam Grass” value ([4]; Preemergence, 62 g ai/ha) was 70, the “Plant response rating, Surinam Grass” value ([4]; Preemergence, 125 g ai/ha) was 100 and the “Plant response rating, Barley, Winter” value ([5]; Postemergence, 16 g ai/ha) was 60. The “Plant response rating, Barley, Winter” value ([5]; Postemergence, 31 g ai/ha) was 72, the “Plant response rating, Barley, Winter” value ([5]; Postemergence, 62 g ai/ha) was 83 and the “Plant response rating, Barley, Winter” value ([5]; Postemergence, 125 g ai/ha) was 90. The “Plant response rating, Barley, Winter” value ([5]; Preemergence, 16 g ai/ha) was 0, the “Plant response rating, Barley, Winter” value ([5]; Preemergence, 31 g ai/ha) was 3 and the “Plant response rating, Barley, Winter” value ([5]; Preemergence, 62 g ai/ha) was 7. For the same compound, the “Plant response rating, Barley, Winter” value ([5]; Preemergence, 125 g ai/ha) was 23, the “Plant response rating, Blackgrass” value ([6]; Postemergence, 16 g ai/ha) was 83 and the “Plant response rating, Blackgrass” value ([6]; Postemergence, 31 g ai/ha) was 90. The “Plant response rating, Blackgrass” value ([6]; Postemergence, 62 g ai/ha) was 93, the “Plant response rating, Blackgrass” value ([6]; Postemergence, 125 g ai/ha) was 95 and the “Plant response rating, Blackgrass” value ([6]; Preemergence, 16 g ai/ha) was 13. For the same compound, the “Plant response rating, Blackgrass” value ([6]; Preemergence, 31 g ai/ha) was 23, the “Plant response rating, Blackgrass” value ([6]; Preemergence, 62 g ai/ha) was 63 and the “Plant response rating, Blackgrass” value ([6]; Preemergence, 125 g ai/ha) was 90. The “Plant response rating, Galium” value ([7]; Postemergence, 16 g ai/ha) was 85, the “Plant response rating, Galium” value ([7]; Postemergence, 31 g ai/ha) was 97 and the “Plant response rating, Galium” value ([7]; Postemergence, 62 g ai/ha) was 97. For the same compound, the “Plant response rating, Galium” value ([7]; Postemergence, 125 g ai/ha) was 98, the “Plant response rating, Galium” value ([7]; Preemergence, 16 g ai/ha) was 13 and the “Plant response rating, Galium” value ([7]; Preemergence, 31 g ai/ha) was 82. For the same compound, the “Plant response rating, Galium” value ([7]; Preemergence, 62 g ai/ha) was 98, the “Plant response rating, Galium” value ([7]; Preemergence, 125 g ai/ha) was 100 and the “Plant response rating, Kochia” value ([8]; Postemergence, 16 g ai/ha) was 35. For the same compound, the “Plant response rating, Kochia” value ([8]; Postemergence, 31 g ai/ha) was 50, the “Plant response rating, Kochia” value ([8]; Postemergence, 62 g ai/ha) was 75 and the “Plant response rating, Kochia” value ([8]; Postemergence, 125 g ai/ha) was 90. For the same compound, the “Plant response rating, Kochia” value ([8]; Preemergence, 16 g ai/ha) was 12, the “Plant response rating, Kochia” value ([8]; Preemergence, 31 g ai/ha) was 22 and the “Plant response rating, Kochia” value ([8]; Preemergence, 62 g ai/ha) was 72. For the same compound, the “Plant response rating, Kochia” value ([8]; Preemergence, 125 g ai/ha) was 93, the “Plant response rating, Oat, Wild” value ([9]; Postemergence, 16 g ai/ha) was 92 and the “Plant response rating, Oat, Wild” value ([9]; Postemergence, 31 g ai/ha) was 92. The “Plant response rating, Oat, Wild” value ([9]; Postemergence, 62 g ai/ha) was 96, the “Plant response rating, Oat, Wild” value ([9]; Postemergence, 125 g ai/ha) was 99 and the “Plant response rating, Oat, Wild” value ([9]; Preemergence, 16 g ai/ha) was 28. The “Plant response rating, Oat, Wild” value ([9]; Preemergence, 31 g ai/ha) was 80, the “Plant response rating, Oat, Wild” value ([9]; Preemergence, 62 g ai/ha) was 83 and the “Plant response rating, Oat, Wild” value ([9]; Preemergence, 125 g ai/ha) was 97. The “Plant response rating, Wheat, Winter” value ([10]; Postemergence, 16 g ai/ha) was 85, the “Plant response rating, Wheat, Winter” value ([10]; Postemergence, 31 g ai/ha) was 90 and the “Plant response rating, Wheat, Winter” value ([10]; Postemergence, 62 g ai/ha) was 90. For the same compound, the “Plant response rating, Wheat, Winter” value ([10]; Postemergence, 125 g ai/ha) was 92, the “Plant response rating, Wheat, Winter” value ([10]; Preemergence, 16 g ai/ha) was 23 and the “Plant response rating, Wheat, Winter” value ([10]; Preemergence, 31 g ai/ha) was 67. For the same compound, the “Plant response rating, Wheat, Winter” value ([10]; Preemergence, 62 g ai/ha) was 80 and the “Plant response rating, Wheat, Winter” value ([10]; Preemergence, 125 g ai/ha) was 93.
